This assay has as its system exonuclease free Klenow fragment DNA polymerase I (EFK). Conditions: 40 μM test compound alone or with 4 μM dNTPαS; 33P 15 mer primer / 24 mer template; one unit EFK; 37° C., 3 minutes. How it is done: Primer Extension Assays to Study the Incorporation of Triphosphate 5 by DNA Polymerases
A primer extension assay was used to evaluate the triphosphate 5 as a substrate for exonuclease free Klenow fragment DNA polymerase I (EFK). The assay used a ^33P 5′ end labelled 15 mer primer hybridised to a 24 mer template. The sequences of the primer and template are:
One picomole ^33P labelled primer was hybridised to 2 picomoles of template in ×2 Klenow buffer (100 mM Tris-HCl pH 7.5, 10 mM MgCl2., 10 mM 2-mercaptoethanol) To this was added either 4 μM dNTPαS or 40 μM (test compound 5c) or a mixture of 4 μM dNTPαS and 40 μM (test compound). One unit EFK and 20 mU inorganic pyrophosphatase were used per reaction. Primer alone, primer plus template plus enzyme controls were also carried out. The reactions were incubated at 37° C. for 3 minutes. Reactions were then stopped by the addition of formamide/EDTA stop solution. Reaction products were separated on a 20% polyacrylamide 7M urea gel and the product fragments sized by comparison with the labelled primer and the products of extensions in the presence of 4 μM dNTPαS after exposure to Kodak Biomax autoradiography film.

On to `Cc1cc2c(nn1)NC(=O)N([C@H]1C[C@H](O)[C@@H](COP(=O)(O)OP(=O)(O)OP(=O)(O)O)O1)C2` [compound 5, 6-(β-D-2-Deoxyribofuranosyl)-5-hydro-3-methyl-8H-pyrimido[4,5-c][1,2]pyridazin-7-one-5′-triphosphate], for which the “natural nucleotide in place of which the test compound is incorporated” value is given as “incorporated in place of dTTP”.

(Values after patent publication US6664058B2, “Base analogues” (Amersham Biosciences UK Limited, priority 2000, dated 2003).)
